What was measured:
[1] = biological target: T1, yeast Gal4-DNA binding domain fused to the ligand binding domain of human RORγ (Homo sapiens, UniProt P51449); experiment: RORγ Reporter Assay (Gal4); assay type: cell-based; settings: values given as lower bounds of ranges; for Gal4 activity range @ 0.1 μM (% inhibition): RORγ Reporter Assay (Gal4) at 0.1 μM; for Gal4 activity range @ 1 μM (% inhibition): RORγ Reporter Assay (Gal4) at 1 μM
T1 construct: host or cells: HEK293t
T1 sequence (P51449 269-508 limits assumed): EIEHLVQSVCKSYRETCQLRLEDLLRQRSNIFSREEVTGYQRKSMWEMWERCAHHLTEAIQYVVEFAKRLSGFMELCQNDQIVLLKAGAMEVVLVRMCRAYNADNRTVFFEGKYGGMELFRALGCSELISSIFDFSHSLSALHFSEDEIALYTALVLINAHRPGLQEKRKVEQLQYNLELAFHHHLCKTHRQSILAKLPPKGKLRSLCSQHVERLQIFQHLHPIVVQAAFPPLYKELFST
In short: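 HEK293t reporter cells expressing the hybrid, with Gal4-UAS-driven firefly luciferase, treated in triplicate with compound at 1,000 nM and 100 nM (0.1% DMSO) in medium with 10% charcoal-stripped FBS for 24 h at 37 °C. Luminescence read; percent reduction of RLU calculated relative to vehicle.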

[2] = biological target: T2, human RORγt (Ligand Binding Domain) (Homo sapiens, UniProt P51449); experiment: Fluorescence Polarization (FP) Assay; settings: Fluorescence Polarization (FP) Assay; values given as upper bounds of activity ranges; read-out: FP activity range
T2 construct: purchased Crelux (Planegg, Germany) batch no PC5032-1
T2 sequence (P51449 269-508 limits assumed): T1 sequence (P51449 269-508 limits assumed)
In short: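 In vitro FP binding assay monitoring ligand binding within the ligand binding pocket. Probe is a TAMRA-labelled RORγt ligand (MW 910 g/mole); DMSO served as negative control.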

NC(=O)Cc1ccc(CNc2ncnc(N3CC(F)(F)CC3c3ccc(C(F)(F)F)cc3)c2F)cc1 (stereo not shown) [Example 231, 2-[4-[[[6-[4,4-difluoro-2-[4-(trifluoromethyl)phenyl]pyrrolidin-1-yl]-5-fluoro-pyrimidin-4-yl]amino]methyl]phenyl]acetamide]
Gal4 activity range @ 0.1 μM (% inhibition) [1]: >50 % inhibition
Gal4 activity range @ 1 μM (% inhibition) [1]: >80 % inhibition
IC50 [2]: < 0.5 µM

OC1(CNc2ncnc(N3CCC[C@@H]3c3ccc(C(F)(F)F)cc3)c2F)CCSCC1 [Example 169, 4-[[[5-fluoro-6-[(2R)-2-[4-(trifluoromethyl)phenyl]pyrrolidin-1-yl]pyrimidin-4-yl]amino]methyl]tetrahydrothiopyran-4-o1]
Gal4 activity range @ 0.1 μM (% inhibition) [1]: >0 % inhibition
IC50 [2]: < 0.5 µM

CC(C)(C)C[C@@H](Nc1ccnc(N2CCCC2c2ccc(C(F)(F)F)cc2)c1F)C(N)=O (stereo partly drawn) [Example 39, (2R)-2-[[3-fluoro-2-[2-[4-(trifluoromethyl)phenyl]pyrrolidin-1-yl]-4-pyridyl]amino]-4,4-dimethyl-pentanamide]
Gal4 activity range @ 1 μM (% inhibition) [1]: >20 % inhibition
IC50 [2]: < 10 µM

COC(=O)C1(CNc2ncnc(N3CCOCC3c3ccc(C(F)(F)F)cc3)c2F)CCOCC1 (stereo not shown) [Example 254, methyl 4-[[[5-fluoro-6-[3-[4-(trifluoromethyl)phenyl]morpholin-4-yl]pyrimidin-4-yl]amino]methyl]tetrahydropyran-4-carboxylate]
Gal4 activity range @ 0.1 μM (% inhibition) [1]: >50 % inhibition
Gal4 activity range @ 1 μM (% inhibition) [1]: >80 % inhibition
IC50 [2]: < 0.5 µM

NC(=O)Cc1ccc(CNc2ncnc(N3CCOC[C@@H]3c3ccc(OC(F)(F)F)cc3)c2F)cc1 [Example 230, 2-[4-[[[5-fluoro-6-[(3S)-3-[4-(trifluoromethoxy)phenyl]morpholin-4-yl]pyrimidin-4-yl]amino]methyl]phenyl]acetamide]
Gal4 activity range @ 0.1 μM (% inhibition) [1]: >50 % inhibition
Gal4 activity range @ 1 μM (% inhibition) [1]: >80 % inhibition
IC50 [2]: < 0.5 µM

CC(=O)N1CCC(F)(CNc2ncnc(N3CCOC[C@@H]3c3ccc(C(F)(F)F)cc3)c2F)CC1 [Example 262, 1-[4-fluoro-4-[[[5-fluoro-6-[(3S)-3-[4-(trifluoromethyl)phenyl]morpholin-4-yl]pyrimidin-4-yl]amino]methyl]-1-piperidyl]ethanone]
Gal4 activity range @ 0.1 μM (% inhibition) [1]: >20 % inhibition
Gal4 activity range @ 1 μM (% inhibition) [1]: >50 % inhibition
IC50 [2]: < 1 µM

COCCNS(=O)(=O)c1ccc(CNc2ncnc(N3CCC[C@@H]3c3ccc(C(F)(F)F)cc3)c2F)cc1 [Example 320, 4-[[[5-fluoro-6-[(2R)-2-[4-(trifluoromethyl)phenyl]pyrrolidin-1-yl]pyrimidin-4-yl]amino]methyl]-N-(2-methoxyethyl)benzenesulfonamide]
Gal4 activity range @ 0.1 μM (% inhibition) [1]: >80 % inhibition
Gal4 activity range @ 1 μM (% inhibition) [1]: >80 % inhibition
IC50 [2]: < 0.5 µM

Fc1c(NCc2ccc(Cc3nnn[nH]3)cc2)ncnc1N1CCOC[C@@H]1c1ccc(OC(F)(F)F)cc1 [Example 246, 5-fluoro-N-[[4-(1H-tetrazol-5-ylmethyl)phenyl]methyl]-6-[(3S)-3-[4-(trifluoromethoxy)phenyl]morpholin-4-yl]pyrimidin-4-amine]
Gal4 activity range @ 0.1 μM (% inhibition) [1]: >20 % inhibition
Gal4 activity range @ 1 μM (% inhibition) [1]: >80 % inhibition
IC50 [2]: < 0.5 µM

Fc1c(NC[C@H]2CC[C@H](Cc3nnn[nH]3)CC2)ncnc1N1CCC[C@@H]1c1ccc(C(F)(F)F)cc1 [Example 190, 5-fluoro-N-[[4-(1H-tetrazol-5-ylmethyl)cyclohexyl]methyl]-6-[(2R)-2-[4-(trifluoromethyl)phenyl]pyrrolidin-1-yl]pyrimidin-4-amine]
Gal4 activity range @ 0.1 μM (% inhibition) [1]: >80 % inhibition
Gal4 activity range @ 1 μM (% inhibition) [1]: >80 % inhibition
IC50 [2]: < 0.5 µM

O=S1(=O)CCOC(CNc2ncnc(N3CCC[C@@H]3c3ccc(C(F)(F)F)cc3)c2F)C1 (stereo partly drawn) [Example 202, N-[(4,4-dioxo-1,4-oxathian-2-yl)methyl]-5-fluoro-6-[(2R)-2-[4-(trifluoromethyl)phenyl]pyrrolidin-1-yl]pyrimidin-4-amine]
Gal4 activity range @ 0.1 μM (% inhibition) [1]: >0 % inhibition
Gal4 activity range @ 1 μM (% inhibition) [1]: >50 % inhibition
IC50 [2]: < 10 µM

Fc1c(NCc2cccs2)ncnc1N1CCC[C@@H]1c1ccc(C(F)(F)F)cc1 [Example 203, 5-fluoro-N-(2-thienylmethyl)-6-[(2R)-2-[4-(trifluoromethyl)phenyl]pyrrolidin-1-yl]pyrimidin-4-amine]
Gal4 activity range @ 0.1 μM (% inhibition) [1]: >0 % inhibition
Gal4 activity range @ 1 μM (% inhibition) [1]: >50 % inhibition
IC50 [2]: < 2 µM

CC1(CNc2ncnc(N3CCC[C@@H]3c3ccc(C(F)(F)F)cc3)c2F)CCOCC1 [Example 161, 5-fluoro-N-[(4-methyltetrahydropyran-4-yl)methyl]-6-[(2R)-2-[4-(trifluoromethyl)phenyl]pyrrolidin-1-yl]pyrimidin-4-amine]
Gal4 activity range @ 0.1 μM (% inhibition) [1]: >20 % inhibition
IC50 [2]: < 0.5 µM

Fc1c(NCC2(F)CCOCC2)ncnc1N1CCOC[C@@H]1c1ccc(C(F)(F)F)cc1 [Example 264, 5-fluoro-N-[(4-fluorotetrahydropyran-4-yl)methyl]-6-[(3S)-3-[4-(trifluoromethyl)phenyl]morpholin-4-yl]pyrimidin-4-amine]
Gal4 activity range @ 0.1 μM (% inhibition) [1]: >20 % inhibition
Gal4 activity range @ 1 μM (% inhibition) [1]: >80 % inhibition
IC50 [2]: < 0.5 µM

N#CC[C@H]1CC[C@H](CNc2ncnc(N3CCOC[C@@H]3c3ccc(C(F)(F)F)cc3)c2F)CC1 [Example 287, 2-[4-[[[5-fluoro-6-[(3S)-3-[4-(trifluoromethyl)phenyl]morpholin-4-yl]pyrimidin-4-yl]amino]methyl]cyclohexyl] acetonitrile]
Gal4 activity range @ 0.1 μM (% inhibition) [1]: >50 % inhibition
Gal4 activity range @ 1 μM (% inhibition) [1]: >80 % inhibition
IC50 [2]: < 0.5 µM

N#CNC(=O)Cc1ccc(CNc2ncnc(N3CCOCC3c3ccc(C(F)(F)F)cc3)c2F)cc1 (stereo not shown) [Example 292, N-cyano-2-[4-[[[5-fluoro-6-[3-[4-(trifluoromethyl)phenyl]morpholin-4-yl]pyrimidin-4-yl]amino]methyl]phenyl]acetamide]
Gal4 activity range @ 0.1 μM (% inhibition) [1]: >0 % inhibition
Gal4 activity range @ 1 μM (% inhibition) [1]: >20 % inhibition
IC50 [2]: < 0.5 µM

O=S1(=O)CCC(CNc2ncnc(N3CCC[C@@H]3c3ccc(C(F)(F)F)cc3)c2F)CC1 [Example 222, N-[(1,1-dioxothian-4-yl)methyl]-5-fluoro-6-[(2R)-2-[4-(trifluoromethyl)phenyl]pyrrolidin-1-yl]pyrimidin-4-amine]
Gal4 activity range @ 0.1 μM (% inhibition) [1]: >20 % inhibition
Gal4 activity range @ 1 μM (% inhibition) [1]: >80 % inhibition
IC50 [2]: < 2 µM

CS(=O)(=O)N1CCC(CNc2ncnc(N3CCOCC3c3ccccc3)c2F)CC1 (stereo not shown) [Example 274, 5-fluoro-N-[(1-methylsulfonyl-4-piperidyl)methyl]-6-(3-phenylmorpholin-4-yl)pyrimidin-4-amine]
Gal4 activity range @ 0.1 μM (% inhibition) [1]: >20 % inhibition
Gal4 activity range @ 1 μM (% inhibition) [1]: >50 % inhibition
IC50 [2]: < 2 µM

COc1ccc(Cn2ccc3c(N4CCCC4c4ccc(C(F)(F)F)cc4)ncnc32)cc1OC (stereo not shown) [Example 69, 7-[(3,4-dimethoxyphenyl)methyl]-4-[2-[4-(trifluoromethyl)phenyl]pyrrolidin-1-yl]pyrrolo[2,3-d]pyrimidine]
Gal4 activity range @ 1 μM (% inhibition) [1]: >50 % inhibition
IC50 [2]: < 1 µM

OCc1ccc(CNc2ncnc(N3CCC[C@@H]3c3ccc(C(F)(F)F)cc3)c2F)cc1 [Example 227, [4-[[[5-fluoro-6-[(2R)-2-[4-(trifluoromethyl)phenyl]pyrrolidin-1-yl]pyrimidin-4-yl]amino]methyl]phenyl]methanol]
Gal4 activity range @ 0.1 μM (% inhibition) [1]: >80 % inhibition
Gal4 activity range @ 1 μM (% inhibition) [1]: >80 % inhibition
IC50 [2]: < 0.5 µM

N#CC1(CNc2ncnc(N3CCOC[C@@H]3c3ccc(C(F)(F)F)cc3)c2F)CCOCC1 [Example 257, 4-[[[5-fluoro-6-[(3S)-3-[4-(trifluoromethyl)phenyl]morpholin-4-yl]pyrimidin-4-yl]amino]methyl]tetrahydropyran-4-carbonitrile]
Gal4 activity range @ 0.1 μM (% inhibition) [1]: >50 % inhibition
Gal4 activity range @ 1 μM (% inhibition) [1]: >80 % inhibition
IC50 [2]: < 0.5 µM

NC(=O)c1ccc(CNc2ncnc(N3CCC[C@@H]3c3ccc(C(F)(F)F)cc3)c2F)cc1 [Example 226, 4-[[[5-fluoro-6-[(2R)-2-[4-(trifluoromethyl)phenyl]pyrrolidin-1-yl]pyrimidin-4-yl]amino]methyl]benzamide]
Gal4 activity range @ 1 μM (% inhibition) [1]: >50 % inhibition
IC50 [2]: < 10 µM

COc1cc(CNc2ncnc(N3CCCC3c3ccc(C(F)(F)F)cc3)c2F)ccn1 (stereo not shown) [Example 113, 5-fluoro-N-[(2-methoxy-4-pyridyl)methyl]-6-[2-[4-(trifluoromethyl)phenyl]pyrrolidin-1-yl]pyrimidin-4-amine]
Gal4 activity range @ 0.1 μM (% inhibition) [1]: >50 % inhibition
Gal4 activity range @ 1 μM (% inhibition) [1]: >80 % inhibition
IC50 [2]: < 0.5 µM

— patent US10689383B2, “Optionally fused heterocyclyl-substituted derivatives of pyrimidine useful for the treatment of inflammatory, metabolic, oncologic and autoimmune diseases” (NUEVOLUTION A/S, priority 2014, dated 2020)
